Results on two molecules are retold here after publication PMC9645390, “Amphiphilic stilbene derivatives attenuate the neurotoxicity of soluble Aβ42 oligomers by controlling their interactions with cell membranes” (Chemical Science, 2022).

Entries after “also recorded” stand apart in the source; their conditions may differ.

For the data set, the system named is mouse neuroblastoma N2a cells. The experiment in a line: Alamar Blue cytotoxicity assay in N2a cells. Format: cell-based. To be noted: 2 to 20 μM.

For `COc1cc(OC)cc(-c2ccc(/C=C/c3cc(CN4CCN(C)CCN(C)CC4)c(O)c(OC)c3)cc2)c1` [ZY-17-OMe], the “cytotoxicity (in words)” value is on record as “higher cytotoxicity than others; also recorded: the highest toxicity”.
The value for `COc1cc(OC)cc(-c2ccc(/C=C/c3cc(CN4CCN(C)CCN(C)CC4)c(O)c(CN4CCN(C)CCN(C)CC4)c3)cc2)c1` [ZY-17-DT] was “higher cytotoxicity than others”.
